Measured values published in patent US10577353B2, “5-(n-[6,5]-fused bicyclic aryl tetrahydroisoquinolin-6-yl) pyridin-3-yl acetic acid derivatives as inhibitors of human immunodeficiency virus replication” (priority 2015, dated 2020).
pEC50: −log10 of the molar value.

Each compound was assayed on recombinant NL-RLuc virus (NL4-3 derived HIV) (assay: Inhibition of HIV replication (NL-RLuc virus in MT-2 cells, luciferase readout)). Conditions: Human immunodeficiency virus 1, NL43, MT2, 120 h.
Assay type: cell-based
Source text: Inhibition of HIV Replication:
A recombinant NL-RLuc proviral clone was constructed in which a section of the nef gene from NL4-3 was replaced with the Renilla Luciferase gene. This virus is fully infectious and can undergo multiple cycles of replication in cell culture. In addition, the luciferous reporter provides a simple and easy method for quantitating the extent of virus growth and consequently, the antiviral activity of test compounds. The plasmid pNLRLuc contains the proviral NL-Rluc DNA cloned into pUC 18 at the PvuII site. The NL-RLuc virus was prepared by transfection of 293T cells with the plasmid pNLRLuc. Transfections were performed using the LipofectAMINE PLUS kit from Invitrogen (Carlsbad, Calif.) according to the manufacturer and the virus generated was titered in MT-2 cells. For susceptibility analyses, the titrated virus was used to infect MT-2 cells in the presence of compound, and after 5 days of incubation, cells were processed and quantitated for virus growth by the amount of expressed luciferase. Assay media was RPMI 1640 supplemented with 10% heat inactivated fetal bovine serum (FBS), 100 units/ml penicillin G/100 units/ml streptomycin, 10 mM HEPES buffer pH 7.55 and 2 mM L-glutamine. The results from at least 2 experiments were used to calculate the EC50 values. Luciferase was quantitated using the Dual Luciferase kit from Promega (Madison, Wis.). Susceptibility of viruses to compounds was determined by incubation in the presence of serial dilutions of the compound. The 50% effective concentration (EC50) was calculated by using the exponential form of the median effect equation where (Fa)=1/[1+(ED50/drug conc.)^m] (Johnson V A, Byington R T. Infectivity Assay. In Techniques in HIV Research. ed. Aldovini A, Walker B D. 71-76. New York: Stockton Press. 1990).

With `Cc1nc(C)c([C@H](OC(C)(C)C)C(=O)O)c(N2CCC(C)(C)CC2)c1-c1ccc2c(c1)CCN(c1ncnc3cc[nH]c13)C2` [Compound 22, (S)-2-(5-(2-(5H-pyrrolo[3,2-d]pyrimidin-4-yl)-1,2,3,4-tetrahydroisoquinolin-6-yl)-4-(4,4-dimethylpiperidin-1-yl)-2,6-dimethylpyridin-3-yl)-2-(tert-butoxy)acetic acid] as the compound, how does the pEC50 read?
The pEC50 was 6.54.

With `CNc1nc(N2CCc3cc(-c4c(C)nc(C)c([C@H](OC(C)(C)C)C(=O)O)c4N4CCC(C)(C)CC4)ccc3C2)nc2nc[nH]c12` [Compound 23, (S)-2-(tert-butoxy)-2-(4-(4,4-dimethylpiperidin-1-yl)-2,6-dimethyl-5-(2-(6-(methylamino)-7H-purin-2-yl)-1,2,3,4-tetrahydroisoquinolin-6-yl)pyridin-3-yl)acetic acid] as the compound, how does the pEC50 read?
Its pEC50 is 7.21.

With `Cc1nc(C)c([C@H](OC(C)(C)C)C(=O)O)c(N2CCC(C)(C)CC2)c1-c1ccc2c(c1)CCN(c1nccc3[nH]cnc13)C2` [Compound 24, (S)-2-(5-(2-(1H-imidazo[4,5-c]pyridin-4-yl)-1,2,3,4-tetrahydroisoquinolin-6-yl)-4-(4,4-dimethylpiperidin-1-yl)-2,6-dimethylpyridin-3-yl)-2-(tert-butoxy)acetic acid] as the compound, how does the pEC50 read?
Its pEC50 is 7.25.

`Cc1nc(C)c([C@H](OC(C)(C)C)C(=O)O)c(N2CCC(C)(C)CC2)c1-c1ccc2c(c1)CCN(c1ncc3cc[nH]c3n1)C2` [Compound 25, (S)-2-(5-(2-(7H-pyrrolo[2,3-d]pyrimidin-2-yl)-1,2,3,4-tetrahydroisoquinolin-6-yl)-4-(4,4-dimethylpiperidin-1-yl)-2,6-dimethylpyridin-3-yl)-2-(tert-butoxy)acetic acid] was tested. Which pEC50 did it give?
Its pEC50 is 8.40.

With `COc1nc(N2CCc3cc(-c4c(C)nc(C)c([C@H](OC(C)(C)C)C(=O)O)c4N4CCC(C)(C)CC4)ccc3C2)c2cc[nH]c2n1` [Compound 27, (S)-2-(tert-butoxy)-2-(4-(4,4-dimethylpiperidin-1-yl)-5-(2-(2-methoxy-7H-pyrrolo[2,3-d]pyrimidin-4-yl)-1,2,3,4-tetrahydroisoquinolin-6-yl)-2,6-dimethylpyridin-3-yl)acetic acid] as the compound, how does the pEC50 read?
The pEC50 was 8.70.

How did the pEC50 turn out when `Cc1nc(C)c([C@H](OC(C)(C)C)C(=O)O)c(N2CCC(C)(C)CC2)c1-c1ccc2c(c1)CCN(c1ncnc3cc(C(C)(C)C)sc13)C2` [Compound 28, (S)-2-(tert-butoxy)-2-(5-(2-(6-(tert-butyl)thieno[3,2-d]pyrimidin-4-yl)-1,2,3,4-tetrahydroisoquinolin-6-yl)-4-(4,4-dimethylpiperidin-1-yl)-2,6-dimethylpyridin-3-yl)acetic acid] was run?
The pEC50 was 7.89.
